Experimental data reported in patent US20190185518A9, “WARHEAD-CONTAINING PEPTIDOMIMETIC MACROCYCLES AS MODULATORS OF BFL-1” (AILERON Therapeutics, Inc., priority 2017, published 2019).
Starred links: 1 amine or outer side, 2 acyl side, 3 side chain; linkers in the order of their positions; H or OH if unused. Positions of bridges follow the written chain, without caps; N, C: chain ends. Non-standard residues stand in square brackets, D forms with d. Residues, ends and D or L forms follow the SMILES beside them. 2Nal = N[C@@H](Cc1ccc2ccccc2c1)C(=O)O; X1 = CC(C)CCC[C@H](N[*:1])C(=O)[*:2]; tBuAla = CC(C)(C)C[C@H](N)C(=O)O; R8 = C=CCCCCCC[C@@](C)(N)C(=O)O; S5 = C=CCCC[C@](C)(N)C(=O)O

Molecular target: Mcl-1 (Homo sapiens, UniProt Q07820)
Sequence (Q07820 whole entry, species assumed): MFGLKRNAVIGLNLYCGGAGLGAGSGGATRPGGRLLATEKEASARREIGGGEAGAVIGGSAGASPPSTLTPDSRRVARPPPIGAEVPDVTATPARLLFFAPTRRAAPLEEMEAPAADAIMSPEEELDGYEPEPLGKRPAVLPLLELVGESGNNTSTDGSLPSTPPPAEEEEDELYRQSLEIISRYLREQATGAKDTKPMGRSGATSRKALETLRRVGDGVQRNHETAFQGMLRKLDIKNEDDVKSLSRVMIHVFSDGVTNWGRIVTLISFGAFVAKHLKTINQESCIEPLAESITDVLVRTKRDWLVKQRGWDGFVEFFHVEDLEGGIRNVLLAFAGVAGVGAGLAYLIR
Assay: Ki determination for Mcl-1 (BCL-2 family binding spectrum)
Conditions: read-out: Ki MCL-1
Excerpt: To assess the binding and affinity of compounds that antagonize the interaction between a peptide and an acceptor protein, a fluorescence polarization assay (FPA) utilizing a fluoresceinated peptidomimetic macrocycle derived from a peptidomimetic precursor sequence is used, for example. The FPA technique measures the molecular orientation and mobility using polarized light and fluorescent tracer. […] A compound that antagonizes the interaction between the fluoresceinated peptidomimetic macrocycle and an acceptor protein will be detected in a competitive binding FPA experiment.
Antagonist binding activity is measured, for example, by fluorescence polarization on a luminescence spectrophotometer (e.g. Perkin-Elmer LS50B). Kd values may be determined by nonlinear regression analysis using, for example, Graphpad Prism software (GraphPad Software, Inc., San Diego, Calif.).

Compound	Ki [nM]
CC[C@H](C)[C@H](NC(C)=O)C(=O)N[C@@H](Cc1c[nH]c2ccccc12)C(=O)N[C@H](C(=O)N[C@@H](C)C(=O)N[C@@H](CCC(N)=O)C(=O)N[C@@H](C)C(=O)N[C@@H](CC(C)C)C(=O)N[C@@H](CCCNC(=N)N)C(=O)N[C@]1(C)CCCCCC/C=C\CCC[C@@](C)(C(=O)N[C@@H](Cc2ccc(O)cc2)C(=O)N[C@@H](Cc2ccc(O)cc2)C(=O)N[C@@H](C)C(N)=O)NC(=O)[C@H](CC(N)=O)NC(=O)[C@H](Cc2ccccc2)NC(=O)[C@H](C)NC(=O)[C@H](CC(=O)O)NC(=O)CNC(=O)[C@H](CC(C)(C)C)NC1=O)[C@@H](C)CC [compound 1701] (Ac-IWIAQALR[R8][tBuAla]GDAFN[S5]YYA-NH2; staple (Z) 9-16)	13.7
CC[C@H](C)[C@H](NC(=O)[C@H](Cc1c[nH]c2ccccc12)NC(=O)[C@H](CCC(=O)O)NC(C)=O)C(=O)N[C@@H](C)C(=O)N[C@@H](C)C(=O)N[C@@H](C)C(=O)N[C@@H](CC(C)C)C(=O)N[C@@H](CCCNC(=N)N)C(=O)N[C@]1(C)CCCCCCC=CCCC[C@@](C)(C(=O)N[C@@H](Cc2ccc(O)cc2)C(=O)N[C@@H](Cc2ccc(O)cc2)C(=O)N[C@@H](C)C(N)=O)NC(=O)[C@H](CC(N)=O)NC(=O)[C@H](Cc2ccccc2)NC(=O)[C@H](C)NC(=O)[C@H](CC(=O)O)NC(=O)CNC(=O)[C@H]([C@@H](C)CC)NC1=O [compound 1716] (Ac-EWIAAALR[R8]IGDAFN[S5]YYA-NH2; staple 9-16)	2.2
CC[C@H](C)[C@H](NC(C)=O)C(=O)N[C@@H](Cc1c[nH]c2ccccc12)C(=O)N[C@@H](CCCC(C)C)C(=O)N[C@@H](C)C(=O)N[C@@H](CCC(N)=O)C(=O)N[C@@H](C)C(=O)N[C@@H](CC(C)C)C(=O)N[C@@H](CCCNC(=N)N)C(=O)N[C@]1(C)CCCCCCC=CCCC[C@@](C)(C(=O)N[C@@H](Cc2ccc(O)cc2)C(=O)N[C@@H](Cc2ccc(O)cc2)C(=O)N[C@@H](C)C(N)=O)NC(=O)[C@H](CC(N)=O)NC(=O)[C@H](Cc2ccccc2)NC(=O)[C@H](C)NC(=O)[C@H](CC(=O)O)NC(=O)CNC(=O)[C@H]([C@@H](C)CC)NC1=O [compound 1678] (Ac-IW[X1]AQALR[R8]IGDAFN[S5]YYA-NH2; staple 9-16)	21.2
CC[C@H](C)[C@H](NC(C)=O)C(=O)N[C@@H](Cc1c[nH]c2ccccc12)C(=O)N[C@H](C(=O)N[C@@H](C)C(=O)N[C@@H](C)C(=O)N[C@@H](C)C(=O)N[C@@H](CC(C)C)C(=O)N[C@@H](CCCNC(=N)N)C(=O)N[C@]1(C)CCCCCCC=CCCC[C@@](C)(C(=O)N[C@@H](Cc2ccc(O)cc2)C(=O)N[C@@H](Cc2ccc(O)cc2)C(=O)N[C@@H](CCC(=O)O)C(N)=O)NC(=O)[C@H](CC(N)=O)NC(=O)[C@H](Cc2ccccc2)NC(=O)[C@H](C)NC(=O)[C@H](CC(=O)O)NC(=O)CNC(=O)[C@H]([C@@H](C)CC)NC1=O)[C@@H](C)CC [compound 1761] (Ac-IWIAAALR[R8]IGDAFN[S5]YYE-NH2; staple 9-16)	1.4
CC[C@H](C)[C@H](NC(C)=O)C(=O)N[C@@H](Cc1ccc2ccccc2c1)C(=O)N[C@H](C(=O)N[C@@H](C)C(=O)N[C@@H](C)C(=O)N[C@@H](C)C(=O)N[C@@H](CC(C)C)C(=O)N[C@@H](CCCNC(=N)N)C(=O)N[C@]1(C)CCCCCCC=CCCC[C@@](C)(C(=O)N[C@@H](Cc2ccc(O)cc2)C(=O)N[C@@H](Cc2ccc(O)cc2)C(=O)N[C@@H](C)C(N)=O)NC(=O)[C@H](CC(N)=O)NC(=O)[C@H](Cc2ccccc2)NC(=O)[C@H](C)NC(=O)[C@H](CC(=O)O)NC(=O)CNC(=O)[C@H]([C@@H](C)CC)NC1=O)[C@@H](C)CC [compound 1732] (Ac-I[2Nal]IAAALR[R8]IGDAFN[S5]YYA-NH2; staple 9-16)	13.7
CC[C@H](C)[C@H](NC(C)=O)C(=O)N[C@@H](Cc1c[nH]c2ccccc12)C(=O)N[C@H](C(=O)N[C@@H](CO)C(=O)N[C@@H](C)C(=O)N[C@@H](C)C(=O)N[C@@H](CC(C)C)C(=O)N[C@@H](CCCNC(=N)N)C(=O)N[C@]1(C)CCCCCCC=CCCC[C@@](C)(C(=O)N[C@@H](Cc2ccc(O)cc2)C(=O)N[C@@H](Cc2ccc(O)cc2)C(=O)N[C@@H](C)C(N)=O)NC(=O)[C@H](CC(N)=O)NC(=O)[C@H](Cc2ccccc2)NC(=O)[C@H](C)NC(=O)[C@H](CC(=O)O)NC(=O)CNC(=O)[C@H]([C@@H](C)CC)NC1=O)[C@@H](C)CC [compound 1733] (Ac-IWISAALR[R8]IGDAFN[S5]YYA-NH2; staple 9-16)	3.6
CC[C@H](C)[C@H](NC(C)=O)C(=O)N[C@@H](Cc1c[nH]c2ccccc12)C(=O)N[C@H](C(=O)N[C@@H](C)C(=O)N[C@@H](C)C(=O)N[C@@H](C)C(=O)N[C@@H](CC(C)C)C(=O)N[C@@H](CCCNC(=N)N)C(=O)N[C@]1(C)CCCCCCC=CCCC[C@@](C)(C(=O)N[C@@H](Cc2ccc(O)cc2)C(=O)N[C@@H](Cc2ccc(O)cc2)C(=O)N[C@@H](CCCCN)C(N)=O)NC(=O)[C@H](CC(N)=O)NC(=O)[C@H](Cc2ccccc2)NC(=O)[C@H](C)NC(=O)[C@H](CC(=O)O)NC(=O)CNC(=O)[C@H]([C@@H](C)CC)NC1=O)[C@@H](C)CC [compound 1766] (Ac-IWIAAALR[R8]IGDAFN[S5]YYK-NH2; staple 9-16)	6.6
CC[C@H](C)[C@H](NC(C)=O)C(=O)N[C@@H](C)C(=O)N[C@H](C(=O)N[C@@H](C)C(=O)N[C@@H](CCC(N)=O)C(=O)N[C@@H](C)C(=O)N[C@@H](CC(C)C)C(=O)N[C@@H](CCCNC(=N)N)C(=O)N[C@]1(C)CCCCCCC=CCCC[C@@](C)(C(=O)N[C@@H](Cc2ccc(O)cc2)C(=O)N[C@@H](Cc2ccc(O)cc2)C(=O)N[C@@H](C)C(N)=O)NC(=O)[C@H](CC(N)=O)NC(=O)[C@H](Cc2ccccc2)NC(=O)[C@H](C)NC(=O)[C@H](CC(=O)O)NC(=O)CNC(=O)[C@H]([C@@H](C)CC)NC1=O)[C@@H](C)CC [compound 1648] (Ac-IAIAQALR[R8]IGDAFN[S5]YYA-NH2; staple 9-16)	19.7
CC[C@H](C)[C@H](NC(C)=O)C(=O)N[C@@H](Cc1c[nH]c2ccccc12)C(=O)N[C@H](C(=O)N[C@@H](C)C(=O)N[C@@H](CC(C)C)C(=O)N[C@@H](C)C(=O)N[C@@H](CC(C)C)C(=O)N[C@@H](CCCNC(=N)N)C(=O)N[C@]1(C)CCCCCCC=CCCC[C@@](C)(C(=O)N[C@@H](Cc2ccc(O)cc2)C(=O)N[C@@H](Cc2ccc(O)cc2)C(=O)N[C@@H](C)C(N)=O)NC(=O)[C@H](CC(N)=O)NC(=O)[C@H](Cc2ccccc2)NC(=O)[C@H](C)NC(=O)[C@H](CC(=O)O)NC(=O)CNC(=O)[C@H]([C@@H](C)CC)NC1=O)[C@@H](C)CC [compound 1736] (Ac-IWIALALR[R8]IGDAFN[S5]YYA-NH2; staple 9-16)	11.6
CC[C@H](C)[C@H](NC(C)=O)C(=O)N[C@@H](Cc1c[nH]c2ccccc12)C(=O)N[C@H](C(=O)N[C@@H](C)C(=O)N[C@@H](C)C(=O)N[C@@H](C)C(=O)N[C@@H](CC(C)C)C(=O)N[C@@H](CCCNC(=N)N)C(=O)N[C@]1(C)CCCCCCC=CCCC[C@@](C)(C(=O)N[C@@H](Cc2ccc(O)cc2)C(=O)N[C@@H](Cc2ccc(O)cc2)C(=O)N[C@@H](C)C(N)=O)NC(=O)[C@H](CO)NC(=O)[C@H](Cc2ccccc2)NC(=O)[C@H](C)NC(=O)[C@H](CC(=O)O)NC(=O)CNC(=O)[C@H]([C@@H](C)CC)NC1=O)[C@@H](C)CC [compound 1751] (Ac-IWIAAALR[R8]IGDAFS[S5]YYA-NH2; staple 9-16)	8
